Read-outs that look alike come from different tables or passages of the source. Where a SMILES comes first, the peptide text is derived from it. Bridges are numbered along the chain shown (N, C = ends). Roman numbers before positions name the chains, in order. Where no end group is shown, it is not given here.
What was measured:
[1] = Cell toxicity / % cell viability by flow cytometry (cells in total events v. untreated); format: cell-based, Human; details: human, HeLa cells; for viability at 1 min, 20 µM: 1 minute; for viability at 1 h, 3.5 µM: antibody 0.5 μM, shuttle 3.5 μM, read-out: Cell viability (%) (± St. Dev.; n = 3), FIG. 19B
Excerpt: (§1) The fluorescence of GFP was quantified using flow cytometry (Accuri C6, Becton, Dickinson and Company (BD)). Untreated cells were used to establish a baseline in order to quantify the increased fluorescence due to the internalization of the fluorescent protein in treated cells. The percentage of cells with a fluorescence signal above the maximum fluorescence of untreated cells, “mean %” or “Pos cells (%)”, is used to identify positive fluorescent cells. “Relative fluorescence intensity (FL1-A)” corresponds to the mean of all fluorescence intensities from each cell with a fluorescent signal after fluorescent protein delivery with the shuttle agent. Also, the events scanned by flow cytometry corresponding to cells (size and granularity) were analyzed. The cellular toxicity (% cell viability) was monitored comparing the percentage of cells in the total events scanned of treated cells comparatively to untreated cells.

HeLa cells = assay: as above; format: cell-based, Human
Excerpt: as §1

[2] = as above; format: cell-based, human; details: human, THP-1 cells
Excerpt: as §1

[3] = Cell viability (%) (±St. Dev.; n = 3), FIG. 29I, HeLa, Protocol B, shuttle 20 μM, GFP-NLS 5 μM, read-out: Cell viability (%) (±St. Dev.; n = 3), FIG. 29I
[4] = HeLa, Protocol B, shuttle 50 μM, GFP-NLS 5 μM, 10 seconds, read-out: Cell viability (%) (±St. Dev.; n = 3), FIG. 29A
[5] = Cell viability (%) (±St. Dev.; n = 3), FIG. 29F, read-out: Cell viability (%) (±St. Dev.; n = 3), FIG. 29F

HHHHHHHHHHHHKWKLFKKIGAVLKVLTTGYARAAARQARA [12His-CM18-PTD4]
viability at 1 min, 20 µM [1, 3]: 33.4 ± 4.3%

YARAAARQARAWEAKLAKALAKALAKHLAKALAKALKACEA [PTD4-KALA]
viability at 1 min, 10 µM ([1]; HeLa, Protocol B, shuttle 10 μM, GFP-NLS 5 μM, incubation 1 min, read-out: Cell viability (%) (±St. Dev.; n = 3), FIG. 29G): 96.2 ± 3%
viability at 2 min, 10 µM ([1]; HeLa, Protocol B, shuttle 10 μM, GFP-NLS 5 μM, incubation 2 min, read-out: Cell viability (%) (±St. Dev.; n = 3), FIG. 29G): 75.3 ± 3.8%
viability at 5 min, 10 µM ([1]; HeLa, Protocol B, shuttle 10 μM, GFP-NLS 5 μM, incubation 5 min, read-out: Cell viability (%) (±St. Dev.; n = 3), FIG. 29G): 82.4 ± 4.7%
viability at 10 s, 50 µM [1, 4]: 91.4 ± 3.67%
Cell viability (%) (±St. Dev.; n = 3), FIG. 29F (HeLa cells): 91.4 ± 3.67%

MHHHHHHKWKLFKKIGAVLKVLTTGYGRKKRRQRRRC [Met-His-CM18-TAT-Cys]
viability at 10 s, 50 µM ([1]; Cell viability (%) (±St. Dev.; n = 3), FIG. 29E, HeLa, Protocol B, shuttle 50 μM, GFP-NLS 5 μM, 10 seconds, read-out: Cell viability (%) (±St. Dev.; n = 3), FIG. 29E): 41.4 ± 3.91%

KWKLFKKIGAVLKVLTTGYARAAARQARA [CM18-PTD4]
viability at 1 min, 20 µM ([1]; cell viability, HeLa, GFP-NLS 5 μM with 20 μM shuttle, Protocol B, Table 10.3e, read-out: cell viability): 33.9%
Cell viability (%) (±St. Dev.; n = 3), FIG. 29I (HeLa cells; HeLa, Protocol B, shuttle 20 μM, GFP-NLS 5 μM, 1 minute): 33.9 ± 3.7%

I: KWKLFKKIGAVLKVLTTGRQIKIWFQNRRMKWKKC / II: KWKLFKKIGAVLKVLTTGRQIKIWFQNRRMKWKKC (disulfide I:35-II:35) [dCM18-Penetratin-Cys]
viability at 1 h, 3.5 µM ([1]; HeLa): 74 ± 9%

HHHHHHYARAAARQARA [His-PTD4, reference compound]
viability at 10 s, 50 µM [1]: 96.5 ± 0.28%

CC[C@H](C)[C@H](NC(=O)[C@@H](NC(=O)[C@H](Cc1ccccc1)NC(=O)[C@@H](N)CCCCN)[C@@H](C)O)C(=O)N[C@H](C(=O)N[C@@H](Cc1ccccc1)C(=O)N1CCC[C@H]1C(=O)N[C@@H](Cc1c[nH]cn1)C(=O)N[C@@H](CC(N)=O)C(=O)N[C@@H](CCC(N)=O)C(=O)N[C@@H](CCCCN)C(=O)NCC(=O)N[C@@H](CC(N)=O)C(=O)N[C@@H](Cc1c[nH]c2ccccc12)C(=O)N[C@@H](CCCCN)C(=O)N[C@@H](CC(N)=O)C(=O)N[C@H](C(=O)N1CCC[C@H]1C(=O)N[C@@H](CO)C(=O)N[C@@H](CC(N)=O)C(=O)N[C@@H](Cc1ccc(O)cc1)C(=O)N[C@@H](Cc1c[nH]cn1)C(=O)N[C@@H](Cc1ccc(O)cc1)C(=O)N[C@@H](CS)C(=O)N1CCC[C@H]1C(=O)N[C@@H](Cc1ccc(O)cc1)C(=O)N[C@@H](C)C(=O)N[C@@H](CCCNC(=N)N)C(=O)N[C@@H](C)C(=O)N[C@@H](C)C(=O)N[C@@H](C)C(=O)N[C@@H](CCCNC(=N)N)C(=O)N[C@@H](CCC(N)=O)C(=O)N[C@@H](C)C(=O)N[C@@H](CCCNC(=N)N)C(=O)N[C@@H](C)C(=O)O)C(C)C)C(C)C [VSVG-PTD4]
viability at 10 s, 50 µM ([1]; HeLa, Protocol B, shuttle 50 μM, GFP-NLS 5 μM, 10 seconds, read-out: Cell viability (%) (±St. Dev.; n = 3), FIG. 29E): 100%

HHHHHHKKALLALALHHLAHLALHLALALKKAYARAAARQARA [His-LAH4-PTD4]
viability at 10 s, 50 µM [1, 4]: 98 ± 1.5%

RRRRRRRRRWEAKLAKALAKALAKHLAKALAKALKACEA [9Arg-KALA]
viability at 10 s, 50 µM [1, 5]: 62.8 ± 5.11%

CC[C@H](C)[C@H](NC(=O)[C@H](CCCCN)NC(=O)[C@H](CCCCN)NC(=O)[C@H](Cc1ccccc1)NC(=O)[C@H](CC(C)C)NC(=O)[C@H](CCCCN)NC(=O)[C@H](Cc1c[nH]c2ccccc12)NC(=O)[C@H](CCCCN)NC(=O)[C@H](Cc1c[nH]cn1)NC(=O)[C@H](C)NC(=O)[C@H](Cc1c[nH]cn1)NC(=O)[C@H](Cc1c[nH]cn1)NC(=O)[C@H](C)NC(=O)[C@H](Cc1c[nH]cn1)NC(=O)[C@H](Cc1c[nH]cn1)NC(=O)[C@H](C)NC(=O)[C@@H](N)Cc1c[nH]cn1)C(=O)NCC(=O)N[C@@H](C)C(=O)N[C@H](C(=O)N[C@@H](CC(C)C)C(=O)N[C@@H](CCCCN)C(=O)N[C@H](C(=O)N[C@@H](CC(C)C)C(=O)N[C@H](C(=O)N[C@H](C(=O)NCC(=O)N[C@@H](Cc1ccc(O)cc1)C(=O)N[C@@H](C)C(=O)N[C@@H](CCCNC(=N)N)C(=O)N[C@@H](C)C(=O)N[C@@H](C)C(=O)N[C@@H](C)C(=O)N[C@@H](CCCNC(=N)N)C(=O)N[C@@H](CCC(N)=O)C(=O)N[C@@H](C)C(=O)N[C@@H](CCCNC(=N)N)C(=O)N[C@@H](C)C(=O)O)[C@@H](C)O)[C@@H](C)O)C(C)C)C(C)C [3HA-CM18-PTD4]
viability at 1 min, 20 µM [1, 3]: 43.6 ± 2.8%

KWKLFKKIGAVLKVLTTGRQIKIWFQNRRMKWKKC [CM18-Penetratin-Cys]
viability at 1 h, 3.5 µM ([1]; HeLa): 73 ± 9.5%

CC(C)C[C@H](NC(=O)[C@H](CC(C)C)NC(=O)[C@H](CCCCN)NC(=O)[C@H](CCCCN)NC(=O)[C@H](CC(C)C)NC(=O)[C@H](CC(C)C)NC(=O)[C@H](CCCCN)NC(=O)[C@H](CCCCN)NC(=O)[C@H](CC(C)C)NC(=O)[C@H](CC(C)C)NC(=O)[C@@H](N)CS)C(=O)N[C@@H](CCCCN)C(=O)N[C@@H](CCCCN)C(=O)N[C@@H](CS)C(=O)O [C(LLKK)3C, reference compound] (H-CLLKKLLKKLLKKC-OH)
viability at 10 s, 50 µM [1]: 61.8 ± 0.1%

WEAKLAKALAKALAKHLAKALAKALKACEA [KALA, reference compound]
viability at 10 s, 50 µM [1]: 84 ± 0.7%

KWKLFKKIGAVLKVLTTG [CM18, reference compound]
viability at 10 s, 50 µM ([1]; Cell viability (%) (±St. Dev.; n = 3), FIG. 29D, HeLa, Protocol B, peptide 50 μM, GFP-NLS 5 μM, 10 seconds, read-out: Cell viability (%) (±St. Dev.; n = 3), FIG. 29D): 95 ± 1.2%

CC(C)C[C@H](NC(=O)[C@H](CC(C)C)NC(=O)[C@H](CCCCN)NC(=O)[C@H](CCCCN)NC(=O)[C@H](CC(C)C)NC(=O)[C@H](CC(C)C)NC(=O)[C@H](CCCCN)NC(=O)[C@H](CCCCN)NC(=O)[C@H](CC(C)C)NC(=O)[C@H](CC(C)C)NC(=O)[C@H](CS)NC(=O)[C@H](Cc1c[nH]cn1)NC(=O)[C@H](Cc1c[nH]cn1)NC(=O)[C@H](Cc1c[nH]cn1)NC(=O)[C@H](Cc1c[nH]cn1)NC(=O)[C@H](Cc1c[nH]cn1)NC(=O)[C@@H](N)Cc1c[nH]cn1)C(=O)N[C@@H](CCCCN)C(=O)N[C@@H](CCCCN)C(=O)N[C@@H](CS)C(=O)N[C@@H](Cc1ccc(O)cc1)C(=O)N[C@@H](C)C(=O)N[C@@H](CCCNC(=N)N)C(=O)N[C@@H](C)C(=O)N[C@@H](C)C(=O)N[C@@H](C)C(=O)N[C@@H](CCCNC(=N)N)C(=O)N[C@@H](CCC(N)=O)C(=O)N[C@@H](C)C(=O)N[C@@H](CCCNC(=N)N)C(=O)N[C@@H](C)C(=O)O [His-C(LLKK)3C-PTD4] (H-HHHHHHCLLKKLLKKLLKKCYARAAARQARA-OH)
viability at 10 s, 50 µM [1]: 95 ± 2.7%
viability at 1 min, 10 µM [1]: 99.5 ± 2.7%
viability at 2 min, 10 µM [1]: 94.3 ± 3.2%
viability at 5 min, 10 µM [1]: 80.8 ± 4.4%
viability at 15 s, 1 µM [2]: 85.2 ± 2.8%
viability at 0.5 min, 1 µM [2]: 86 ± 2%
viability at 1 min, 1 µM [2]: 86.9 ± 3.8%
viability at 2 min, 1 µM [2]: 79.6 ± 2.8%
viability at 24 h, 0.8 µM [2]: 97.2 ± 2.2%
viability at 72 h, 0.8 µM [2]: 76.6 ± 3.4%

HHHKWKLFKKIGAVLKVLTTGYARAAARQARA [3His-CM18-PTD4]
viability at 1 min, 20 µM [1, 3]: 39.2 ± 3.3%

KWKLFKKIGAVLKVLTTGHHHHHHYARAAARQARA [CM18-His-PTD4]
viability at 1 min, 20 µM [1, 3]: 57.7 ± 4.2%

N=C(N)NCCC[C@H](NC(=O)CNC(=O)[C@@H](N)Cc1ccc(O)cc1)C(=O)N[C@@H](CCCCN)C(=O)N[C@@H](CCCCN)C(=O)N[C@@H](CCCNC(=N)N)C(=O)N[C@@H](CCCNC(=N)N)C(=O)N[C@@H](CCC(N)=O)C(=O)N[C@@H](CCCNC(=N)N)C(=O)N[C@@H](CCCNC(=N)N)C(=O)N[C@@H](CCCNC(=N)N)C(=O)N[C@@H](CS)C(=O)O [TAT-Cys, reference compound]
viability at 10 s, 50 µM ([1]; HeLa, Protocol B, peptide 50 μM, GFP-NLS 5 μM, 10 seconds, read-out: Cell viability (%) (±St. Dev.; n = 3), FIG. 29D): 94.6 ± 0.44%

LIRLWSHLIHIWFQNRRLKWKKKYARAAARQARA [EB1-PTD4]
viability at 10 s, 50 µM [1]: 39 ± 5.6%
viability at 1 min, 10 µM [1]: 61.7 ± 2.7%
viability at 2 min, 10 µM [1]: 56.6 ± 3.2%
viability at 5 min, 10 µM [1]: 55.8 ± 4.4%

HHHHHHKWKLFKKIGAVLKVLTTGYARAAARQARAHHHHHH [His-CM18-PTD4-His]
viability at 1 min, 10 µM ([1]; Cell viability (%) (±St. Dev.; n = 3), FIG. 29G, HeLa, Protocol B, shuttle 10 μM, GFP-NLS 5 μM, incubation 1 min, read-out: Cell viability (%) (±St. Dev.; n = 3), FIG. 29G): 68.1 ± 2.7%
viability at 2 min, 10 µM ([1]; Cell viability (%) (±St. Dev.; n = 3), FIG. 29G, HeLa, Protocol B, shuttle 10 μM, GFP-NLS 5 μM, incubation 2 min, read-out: Cell viability (%) (±St. Dev.; n = 3), FIG. 29G): 61.6 ± 3.2%
viability at 5 min, 10 µM ([1]; Cell viability (%) (±St. Dev.; n = 3), FIG. 29G, HeLa, Protocol B, shuttle 10 μM, GFP-NLS 5 μM, incubation 5 min, read-out: Cell viability (%) (±St. Dev.; n = 3), FIG. 29G): 41.2 ± 4.4%
viability at 1 min, 20 µM [1, 3]: 78.6 ± 1.1%

YARAAARQARA [PTD4, reference compound]
viability at 10 s, 50 µM ([1]; Cell viability (%) (±St. Dev.; n = 3), FIG. 29D, read-out: Cell viability (%) (±St. Dev.; n = 3), FIG. 29D): 94 ± 4.5%

GLFEALLELLESLWELLLEAYARAAARQARA [JST-PTD4]
viability at 10 s, 50 µM ([1]; Cell viability (%) (±St. Dev.; n = 3), FIG. 29E, read-out: Cell viability (%) (±St. Dev.; n = 3), FIG. 29E): 98.9 ± 0.57%

RRLSYSRRRFWEAKLAKALAKALAKHLAKALAKALKACEA [SynB3-KALA]
viability at 10 s, 50 µM [1, 5]: 91.1 ± 0.82%

HHHAHHHKWKLFKKIGAVLKVLTTGYARAAARQARA [HA-CM18-PTD4]
viability at 1 min, 20 µM [1, 3]: 68.3 ± 4.1%
